Data taken from patent publication US20080286337A1, “Method of treating a disease in an eye using a scleral lens” (Boston Foundation for Sight, priority 2007, published 2008).
Where two headings read alike, the source gives them in different places.

Tests used:
[1] = tested on: corneal neovascularization; test: Topical AVASTIN in the scleral lens drug delivery system to treat corneal neovascularization; type: in vivo
Source text: This study using AVASTIN® off-label, topically, to treat corneal neovascularization was repeated using the scleral lens drug delivery system. […] This therapeutic effect was achieved without BAK. Instead, the expanded pre-corneal tear film of the scleral lens drug delivery system provided adequate bioavailability of the drug without exposing the cornea to BAK.

[2] = tested on: corneal neovascularization; conditions: solution of 1% AVASTIN and 0.01% BAK, one drop, four times per day for at least thirty days; no scleral lens; cited from earlier work

## bevacizumab [AVASTIN®]
[1]; one drop of 1% AVASTIN added to expanded pre-corneal tear film of artificial tears in a scleral lens twice per day, without BAK
  therapeutic effect on corneal neovascularization: achieved a therapeutic effect by thirty days
[1]; same regimen, the sixty days following the first thirty days
  continued benefit after initial therapeutic effect: continued benefit over the subsequent sixty days
[1]; scleral lens drug delivery system
  regression of corneal neovascularization (clinical photos, FIG. 5): regression of corneal neovascularization
[2]
  therapeutic effect on corneal neovascularization: Therapeutic effect was reported
